Consider 1 compound from PMC10778824, “New Chalcone Derivatives Containing 2,4-Dichlorobenzenesulfonamide Moiety with Anticancer and Antioxidant Properties” (International Journal of Molecular Sciences, 2023).

Converted amounts (≈) assume the structure as drawn.

Experiment [1] concerns cervical cancer HeLa. The experiment in a line: MTT assay, HeLa cells. The format is cell-based, human. As for the experimental part: (§1) The human gastric adenocarcinoma AGS, cervical cancer HeLa, and acute promyelocytic leukemia HL-60 cells were obtained from the American Type Culture Collection (ATCC, Manassas, VA, USA). Human neonatal fibroblasts were obtained from LGC Standards (Luckenwalde, Germany). The HeLa and AGS lines were cultured in Dulbecco’s modified Eagle’s medium (DMEM) and DMEM/F12 medium, respectively. The HL-60 line was maintained in RPMI-1640 medium. Fibroblasts were cultured in Fibroblast Growth Medium with Supplement Mix. All the media were supplemented with 100 units/mL of penicillin, 100 µg/mL of streptomycin, and 10% (v/v) fetal bovine serum (FBS) (Merck Millipore, Burlington, MA, USA). The cells were incubated at 37 °C and 5% CO2.
(§2) To estimate the cytotoxic effect of the five compounds (4–8), MTT (3-(4,5-dimethylthiazol-2-yl)-2,5-diphenyltetrazolium bromide) assay was used. Oxaliplatin was used as a positive control in this test. All the cell lines were seeded in 96-well plates at a density of 5 × 10^3 cells/well and treated for 24 h with the compounds at concentrations of 0.5–40 µg/mL. Oxaliplatin was tested in the range of 20–400 µg/mL (50–1000 µM). After treatment, the cells were incubated with MTT (0.5 mg/mL; Merck Millipore, Burlington, MA, USA) for 3 h. Then, DMSO was used to dissolve formazan crystals, and the absorbance of the formazan solution was measured with a plate reader (Epoch, BioTek Instruments, Santa Clara, CA, USA). All the results (±standard deviation (SD)) were obtained from six repetitions in at least two independent experiments. The data are expressed as IC50 values (µg/mL).

For experiment [2], the system named is AGS cells. The experiment in a line: MitoPotential assay (mitochondrial membrane depolarization). To be noted: 10 µg/mL, 5 h. The format is cell-based, human. As for the experimental part:
The AGS cells were seeded in a 12-well plate (1 × 10^5 cells/well) and incubated with compound 5 at concentrations of 1, 5, and 10 µg/mL; oxaliplatin at the concentration of 40 µg/mL; and DMSO (0.2%, v/v). After 5 h of exposure, the cells were stained with the Muse MitoPotential Assay Kit (Merck Millipore, Burlington, MA, USA) and analyzed with the Muse Cell Analyzer (Merck Millipore, Burlington, MA, USA). The percentage of depolarized live and dead cells was estimated in the experiments, which were independently repeated three times.

The test system of experiment [3] is Salmonella enterica ATCC13076. The experiment in a line: MIC determination. To be noted: 37 °C, 48 h. It is filed as cell-based. In short, it runs like this: (§3)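 Samples: DMSO stock diluted in water to ~500 μg/mL, then geometric dilution across twelve wells (final 500–0.006 µg/mL). 37 °C, 48 h. Campylobacter run per H. pylori protocol; L. monocytogenes per B. subtilis protocol. n=3.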

Experiment [4] deals with Campylobacter coli ZMF. The experiment in a line: MIC determination. It is filed as cell-based. To be noted: 37 °C, 48 h. In short, it runs like this:
as §3

Experiment [5] relates to Listeria monocytogenes PCM2191. The experiment in a line: MIC determination. It is filed as cell-based. To be noted: 37 °C, 48 h. In short, it runs like this: as §3
Experiment [6] relates to Escherichia coli ATCC8739. The experiment in a line: MIC determination. It is filed as cell-based. To be noted: 37 °C, 48 h. In outline:
as §3

Experiment [7] relates to Staphylococcus epidermidis ATCC14990. The experiment in a line: MIC determination. Particulars: 37 °C, 48 h. The format is cell-based. In outline: as §3
Experiment [8] relates to Staphylococcus aureus ATCC6538. The experiment in a line: MIC determination. The format is cell-based. Particulars: 37 °C, 48 h. In outline: as §3
Experiment [9] has as its system Campylobacter jejuni ZMF. The experiment in a line: MIC determination. It is filed as cell-based. To be noted: 37 °C, 48 h. In short, it runs like this:
as §3

Experiment [10] concerns Helicobacter pylori ATCC43504. The experiment in a line: MIC determination. The format is cell-based. Particulars: 37 °C, 48 h. In outline: as §3
In experiment [11] the test system is Enterococcus faecalis ATCC51299. The experiment in a line: MIC determination. The format is cell-based. Particulars: 37 °C, 48 h. In short, it runs like this:
as §3

Experiment [12] deals with Klebsiella pneumoniae ATCC13883. The experiment in a line: MIC determination. The format is cell-based. To be noted: 37 °C, 48 h. In short, it runs like this: as §3
In experiment [13] the test system is Bacillus cereus PCM 1948,2019 (ATCC11778). The experiment in a line: MIC determination. The format is cell-based. To be noted: 37 °C, 48 h. In short, it runs like this: as §3
For experiment [14], the system named is acute promyelocytic leukemia HL-60. The experiment in a line: MTT assay, HL-60 cells. The format is cell-based, human. As for the experimental part: as §1, §2
The test system of experiment [15] is AGS cells. The experiment in a line: Microscopic observation of AGS cells. The format is cell-based, human. Particulars: microscopy, 200×; compound 5 at 1, 5, 10 µg/mL; oxaliplatin 20 and 40 µg/mL. As for the experimental part: These changes were clearly visible when higher concentrations of the compound were used in the study.
Figure 2 The effect of chalcone derivative 5 on AGS cells. The cells were treated with DMSO (0.2%, v/v) (A) and the compound at concentrations of 1 (B), 5 (C), and 10 (D) µg/mL and oxaliplatin at 20 (E) and 40 (F) µg/mL. The images were taken at 200× magnification.

In experiment [16] the test system is human neonatal fibroblasts. The experiment in a line: MTT assay, noncancerous fibroblasts. The format is cell-based. Particulars: Homo sapiens, Fibroblast, 24 h treatment. The procedure:
as §1, §2

Setting [17] is: SI = IC50 noncancer cells/IC50 cancer cells, in relation to human neonatal fibroblasts.

Usually IC50 stands for the point on the concentration scale where inhibition reaches its midpoint. Higher therefore signals a need for much substance. A word on the MIC: it is the smallest concentration in the dilution series that meets the test's criterion for growth inhibition. In the case of `Cc1cc(S(=O)(=O)Nc2ccc(C(=O)/C=C/c3ccc(Br)cc3)cc2)c(Cl)cc1Cl` [Compound 5, (E)-N-{4-[3-(4-Bromophenyl)acryloyl]phenyl}-2,4-Dichloro-5-Methylbenzenesulfonamide], the IC50 is 5.67 ± 0.35 µg/mL (≈ 10.8 µM) in experiment [1] (Homo sapiens, HeLa, MTT, 24 h treatment); less than 1.57 µg/mL in [14] (Homo sapiens, HL-60, 24 h, MTT, 24 h treatment); 25.6 ± 1.04 µg/mL (≈ 48.7 µM) in experiment [16]. Further, in experiment [1] (setting [17]), the “selectivity index HeLa” value is 4.51. For the same compound, the depolarized/dead cells in experiment [2] is on record as 32.71% ± 3.50%. Besides, in [2], the depolarized/live cells is 34.20% ± 2.57%. Besides, the MIC in [3], in [4], in experiment [5], in experiment [6], in experiment [7] and in [8] was more than 500 µg/mL throughout. In addition, the MIC in experiment [9], in experiment [10], in experiment [11], in experiment [12] and in experiment [13] was more than 500 µg/mL each time. Also, the “IC50 HL-60” value in [14] (MTT, 24 h treatment) was found to be 0.93 ± 0.09 µg/mL (≈ 1.77 µM). Besides, the “selectivity index HL-60” value in [14] (setting [17]) was found to be 27.52. The “morphological changes of AGS cells” value in experiment [15] was “cell shrinkage, membrane blebbing, and cell detachment”.
